We go through 5 compounds from US20240285497A1, “METHOD FOR EVALUATING AN ABILITY OF A TEST SAMPLE TO TRIGGER A FOREIGN BODY REACTION IN THE SKIN, A METHOD FOR SCREENING A SUBSTANCE HAVING AN ABILITY TO INHIBIT A FOREIGN BODY REACTION IN THE SKIN, AND AN AGENT FOR INHIBITING A FOREIGN BODY REACTION IN THE SKIN” (priority 2021, published 2024).

The structures appear in SMILES notation. Marks after values point to notes of the source that are not given here.

One may read the EC50 as the concentration giving half of the maximal effect. High values mean weaker potency, low ones greater potency.

Data set [1] deals with xenobiotic responsive element (XRE). Briefly: Evaluation of ability to trigger a foreign body reaction using XRE-NLuc::HaCaT reporter cells (NLuc luminescence per viable cell). The format is cell-based, human. The note with it: XRE-NLuc::HaCaT cells; for EC50: reporter protein expression; for Present Experiment Maximum Effective concentration Max. Induction: concentration at which reporter expression was maximized. Here is the method: First, XRE-NLuc::HaCaT cells were suspended in a DMEM medium at the density of 1×10^5 cell/mL, and 100 μL of the thus obtained suspension was added to each well of white 96 well plates (Thermo Fisher Scientific, MA, U.S.A.; Catalogue No.: 136102) so that the number of the cells in each well was 10,000 cells/well. In accordance with a conventional method, the cells were incubated at 37° C., 5% CO2 for 24 hours. Thereafter, the DMEM medium was removed, and 100 μL of a new DMEM medium containing FICZ (6-Formylindolo[3,2-b]carbazole; CAS RN: 172922-91-7) as a test sample at a predetermined concentration was added, followed by further incubation for 24 hours at 37° C., 5% CO2. FICZ is known as a substance that triggers a foreign body reaction in which XRE is involved. Meanwhile, negative controls were prepared by adding 100 μL of a DMEM medium containing no FICZ instead of the DMEM medium containing FICZ, which were also incubated for 24 hours at 37° C., 5% CO2.
(§1) After the above-described incubation for 24 hours, the number of cells in each well was counted by a colorimetric method based on the degradation of tetrazolium salt (WST-1) by mitochondrial dehydrogenase in viable cells. Specifically, 3 μL of Premix WST-1 (Product Name “Premix WST-1 Cell Proliferation Assay System”; Takara Bio Inc., Shiga, Japan; Catalogue No.: MK400) was added to each well of 96 well plates, and then the cells were cultured for 1 hour at 37° C., 5% CO2. Thereafter, 93 μL of cell culture supernatant was removed from each well to measure the absorbance of the supernatant in each well. The removed supernatants were transferred to transparent 96 well plates, and then the absorbance at 450 nm (A450) and, as a reference wavelength, the absorbance at 670 nm (A670) were measured using iMark microplate reader (Bio-Rad; Catalogue No.: 168-1130JA). A value (A450-A670) was obtained by subtracting the absorbance at 670 nm (A670) from the absorbance at 450 nm (A450). The relative viable cell count (%) was expressed as a relative value with the value (A450-A670) obtained for the negative control as 100%.
Meanwhile, the expression level of the reporter protein was measured using samples left on the white 96-well plates after removing the supernatants for the viable cell count measurement. Briefly, 7 μL of Nano-Glo Luciferase Assay System (Promega; Catalogue No.: N110) was added to each well of the white 96-well plate. After 3 mins, the luminescence intensity obtained from the reporter protein produced by XRE-NLuc::HaCaT cells in each well was measured using GloMax Navigator Microplate Luminometer (Promega; Catalogue No.: GM2000). The obtained luminescence intensities were divided by the relative viable cell counts obtained by the above-described colorimetric method to obtain the expression level of the reporter protein (luminescence intensity) per unit number of viable cells.
In FIG. 3, the luminescence intensity per unit number of viable cells obtained from XRE-NLuc::HaCaT cells incubated with each of the DMEM medium containing FICZ at different concentrations was shown as a relative value, with the luminescence intensity per unit number of viable cells obtained for the negative control set to 1. […] In the figure, “*” and “**” indicate statistically significant differences (p<0.05 and p<0.01, respectively) from the negative control (“FICZ Concentration 0 nM” in FIG. 3).
(§2) The ability of each test sample to trigger a foreign body reaction was evaluated using XRE-NLuc::HaCaT cells in the same manner as in Experiment 1-2, except that I3C (Indole-3-carbinol, CAS RN: 700-06-1), ITE (2-(1′H-indole-3′-carbonyl)-thiazole-4-carboxylic acid methyl ester, CAS RN: 448906-42-1), and Indirubin (CAS RN: 479-41-4) were used instead of FICZ as test samples and the amount of each test sample added to the DMEM medium was appropriately changed.

The subject of data set [2] is XRE-NLuc::HaCaT cells. Briefly: in vitro. The note with it: read-out: LC50; XRE-NLuc::HaCaT cells, median lethal concentration. As to the method:
as §1, §2

The test system of data set [3] is human liver cancer-derived cell line HepG2 cells. The following applies: cited from earlier work.
The nature of data set [4]: in vitro. The following applies: human. As to the method:
as §1, §2

Data set [5] concerns xenobiotic responsive element (XRE). Briefly: Screening: inhibition of FICZ-triggered reporter protein expression in XRE-NLuc::HaCaT cells. The following applies: FICZ 5,000 nM, 24 hours. The format is cell-based, human. As to the method: First, in the same manner as in Experiment 1-2, XRE-NLuc::HaCaT cells were suspended in a DMEM medium at the density of 1×10^5 cell/mL, and 100 μL of the thus obtained suspension was added to each well of white 96-well plates (Thermo Fisher Scientific, MA, U.S.A.; Catalogue No.: 136102) so that a number of the cells in each well was 10,000 cells/well. In accordance with the conventional method, the cells were incubated for 24 hours at 37° C. and 5% CO2. Thereafter, the DMEM medium was removed, and 100 μL of a new DMEM medium containing […] of FICZ, which was confirmed to activate the expression of the reporter protein in Experiment 1-2, and a candidate substance at a predetermined concentration. Meanwhile, reference samples were also prepared by adding 100 μL of a DMEM medium containing 5,000 nM of FICZ but not containing candidate substances. In this experiment, 5-hydroxy-4-phenyl-2(5H)butenolide (hereinafter also referred to as “Fraglide-1” or “FG1”) and, as a positive control, cinnamaldehyde, which is known to have an effect of inhibiting a foreign body reaction in which a xenobiotic responsive element (XRE) is involved, were used as test substances. After incubation for 24 hours at 37° C. and 5% CO2, the expression level of the reporter protein (luminescence intensity) and the viable cell count were measured in accordance with the method described in Experiment 1-2, and the expression of the reporter protein per unit number of viable cells was obtained. The inhibition rate (Inhibition (%)) of the expression of the reporter protein exerted by each candidate substance was calculated in accordance with the following formula.
In the above formula, (Reporter Expression)FICZ indicates the expression of the reporter protein per unit number of viable cells obtained from the reference samples: i.e., the cells incubated in the medium containing 5,000 nM of FICZ but not containing candidate substances. Meanwhile, (Reporter Expression)FICZ+TEST SAMPLE indicates the expression of the reporter protein per unit number of viable cells obtained from the cells incubated in the medium containing 5,000 nM of FICZ and a candidate substance. The results shown in FIG. 6 were the mean obtained from three independent experiments. The error bars represent the standard error (SE).

Data set [6] has as its system TIMP-1 (Tissue Inhibitor of Matrix Metalloprotease-1) mRNA. Nature of the data set: TIMP-1 mRNA expression in HaCaT cells, quantitative PCR. The note with it: Fraglide-1 1 μM, 10 μM, 100 μM; retinoic acid / nicotinic acid amide at predetermined concentrations; 24 hours. The class given is cell-based, human. As to the method:
Specifically, the mRNA expression of TIMP-1 in the HaCaT cells treated with Fraglide-1 was evaluated by performing quantitative PCR using cDNA obtained in Experiment 4-1. The procedure of quantitative PCR was the same as described in Experiment 4-1 except that the primers shown in below Table 5 were used.
In FIG. 14, the results obtained for each sample were shown in relative values normalized by setting the expression level of TIMP-1 in the HaCaT cells incubated for 24 hours in DMEM medium not containing Fraglide-1 (i.e., the non-treated HaCaT cells) as 1. The results shown in FIG. 14 are the mean of values obtained from three independent experiments, and the error bars represent standard deviation (SD).
On the other hand, as comparison, the similar evaluation was performed for retinoic acid and nicotinamide, which are known as active ingredients of anti-wrinkle agents, using cDNA obtained in Experiment 4-2. The procedure for quantitative PCR was the same as already described in Experiment 3-1, except that the primers shown in Table 5 were used.
In FIG. 15, the results obtained for each sample were shown in relative values normalized by setting the expression level of TIMP-1 in the HaCaT cells incubated for 24 hours in DMEM medium not containing either retinoic acid and nicotinic acid amide (i.e., the non-treated HaCaT cells) as 1. The results shown in FIG. 15 are the mean of values obtained from three independent experiments, and the error bars represent standard deviation (SD).

For data set [7], the system named is matrix metalloprotease 2 (MMP2) mRNA. Briefly: MMP2 mRNA expression in HaCaT cells contacted with test substance, quantitative PCR. The class given is cell-based, human. The note with it: retinoic acid or nicotinamide at predetermined concentrations, 24 hours. As to the method:
In this experiment, the effect of Fraglide-1 on the expression of MMP9 in the level of mRNA was examined first. Specifically, HaCaT cells were treated with Fraglide-1 in the same manner as described in Experiment 3-1 except that HaCaT cells were incubated for 24 hours in the medium containing 0 μM, 1 μM, 10 μM, and 100 μM of Fraglide-1 instead of being incubated for 24 hours in the medium containing both FICZ and Fraglide-1. The total RNA was then extracted, cDNA was prepared, and the quantitative PCR was performed using the obtained cDNA. Herein, the procedure of the quantitative PCR was the same as described in Experiment 3-1 except that the primers shown in below Table 4 were used. In this experiment, the expression of MMP2 mRNA was also quantified in addition to MMP9 mRNA. MMP2 is known as a MMP which is not transcriptionally regulated by a xenobiotic responsive element (XRE). […]
Next, experiments were performed to inhibit MMP9 and MMP2 in HaCaT cells using retinoic acid (CAS RN: 302-79-4) and nicotinamide (CAS RN: 98-92-0), which are known to be substances having anti-wrinkle effect. […] Then, the total RNA was extracted, cDNA was prepared, and the quantitative PCR was carried out using the obtained cDNA. […]

The test system of data set [8] is matrix metalloprotease 9 (MMP9) mRNA. Nature of the data set: MMP9 mRNA expression in HaCaT cells contacted with test substance, quantitative PCR. The format is cell-based, human. The note with it: retinoic acid or nicotinamide at predetermined concentrations, 24 hours. Here is the method:
In this experiment, the effect of Fraglide-1 on the expression of MMP9 in the level of mRNA was examined first. Specifically, HaCaT cells were treated with Fraglide-1 in the same manner as described in Experiment 3-1 except that HaCaT cells were incubated for 24 hours in the medium containing 0 μM, 1 μM, 10 μM, and 100 μM of Fraglide-1 instead of being incubated for 24 hours in the medium containing both FICZ and Fraglide-1. The total RNA was then extracted, cDNA was prepared, and the quantitative PCR was performed using the obtained cDNA. Herein, the procedure of the quantitative PCR was the same as described in Experiment 3-1 except that the primers shown in below Table 4 were used. In this experiment, the expression of MMP2 mRNA was also quantified in addition to MMP9 mRNA. MMP2 is known as a MMP which is not transcriptionally regulated by a xenobiotic responsive element (XRE).
In FIG. 9 and FIG. 10, the results obtained for each sample were shown as a relative value, with the mRNA expression level of MMP9 or MMP2 in the HaCaT cells incubated for 24 hours in DMEM medium without […] (i.e., the non-treated HaCaT cells) set to 1. The results shown in FIG. 9 and FIG. 10 were the mean obtained from three independent experiments. The error bars represent the standard deviation (SD).
Next, experiments were performed to inhibit MMP9 and MMP2 in HaCaT cells using retinoic acid (CAS RN: 302-79-4) and nicotinamide (CAS RN: 98-92-0), which are known to be substances having anti-wrinkle effect. Briefly, HaCaT cells were made in contact with retinoic acid and nicotinamide in the same manner as in Experiment 4-1 except that retinoic acid and nicotinamide were used instead of Fraglide-1. Then, the total RNA was extracted, cDNA was prepared, and the quantitative PCR was carried out using the obtained cDNA.
In FIG. 12 and FIG. 13, the results obtained for each sample were shown as a relative value, with the mRNA expression level of MMP9 or MMP2 in the HaCaT cells incubated for 24 hours in DMEM medium containing neither retinoic acid nor nicotinamide (i.e., the non-treated HaCaT cells) set to 1. The results shown in FIG. 12 and FIG. 13 were the mean obtained from three independent experiments. The error bars represent the standard deviation (SD).

For `OCc1c[nH]c2ccccc12` [I3C, indole-3-carbinol], in data set [1], the EC50 came to 11 µM and the “Present Experiment Maximum Effective concentration Max. Induction” value amounted to 350 µM. Also, the CC50 in data set [2] was greater than 700 µM.
As for `COC(=O)c1csc(C(=O)c2c[nH]c3ccccc23)n1` [ITE, 2-(1′H-indole-3′-carbonyl)-thiazole-4-carboxylic acid methyl ester], in data set [1], the EC50 stood at 1.3 µM and the “Present Experiment Maximum Effective concentration Max. Induction” value was 25 µM. In data set [3], the “Literature Value Maximum Effective concentration Max. Induction” value is 10** μM. Further, in data set [2], the CC50 is greater than 100 µM.
On to `O=C1Nc2ccccc2/C1=C1/Nc2ccccc2C1=O` [Indirubin, indirubin], for which the EC50 in data set [1] (Homo sapiens) stood at 0.006 µM. Besides, the “Present Experiment Maximum Effective concentration Max. Induction” value in data set [1] came out at 0.25 µM. In data set [4], the CC50 at 24 h is greater than 40 µM.
As for `O=CC=Cc1ccccc1` [cinnamaldehyde], the “Inhibition (%) of expression of the reporter protein triggered by FICZ” value is reported as 8% in data set [5] (12.5 μM test substance), 14% in data set [5] (25 μM test substance) and 16% in data set [5] (50 μM test substance).
For the compound `NC(=O)c1cccnc1` [nicotinamide], in data set [6], the “expression level of TIMP-1 mRNA vs non-treated HaCaT cells (in words)” value is recorded as “increase of the expression level of TIMP-1 was not observed”. The “expression of MMP2 mRNA vs non-treated HaCaT cells” value in data set [7] was “decreased”. Further, in data set [8], the “expression of MMP9 mRNA vs non-treated HaCaT cells” value was “decreased expression of MMP9 was also observed”.
